Reference: patent US12440484B2, “1,3,4-oxadiazole homophthalimide derivative compounds as histone deacetylase 6 inhibitor, and the pharmaceutical composition comprising the same” (Chong Kun Dang Pharmaceutical Corp., priority 2019, dated 2025)
pIC50: −log10 of the molar value.

Key:
[1] = target: HDAC6 human recombinant (Homo sapiens (Human), UniProt Q9UBN7); test: HDAC enzyme activity inhibition (in vitro), HDAC6 assay; format: biochemical; conditions: samples at 0.1, 1, 10, 100 and 1000 nM; 37° C. 60 minutes; fluorescence Ex 390, Em 460
[2] = target: HDAC1 (Homo sapiens (Human), UniProt Q13547); test: HDAC enzyme activity inhibition (in vitro), HDAC1 Fluorimetric Drug Discovery Assay Kit; format: biochemical; conditions: samples at 100, 1000 and 10000 nM; 37° C. 60 minutes; fluorescence Ex 390, Em 460
HDAC1, sequence (Q13547 whole entry): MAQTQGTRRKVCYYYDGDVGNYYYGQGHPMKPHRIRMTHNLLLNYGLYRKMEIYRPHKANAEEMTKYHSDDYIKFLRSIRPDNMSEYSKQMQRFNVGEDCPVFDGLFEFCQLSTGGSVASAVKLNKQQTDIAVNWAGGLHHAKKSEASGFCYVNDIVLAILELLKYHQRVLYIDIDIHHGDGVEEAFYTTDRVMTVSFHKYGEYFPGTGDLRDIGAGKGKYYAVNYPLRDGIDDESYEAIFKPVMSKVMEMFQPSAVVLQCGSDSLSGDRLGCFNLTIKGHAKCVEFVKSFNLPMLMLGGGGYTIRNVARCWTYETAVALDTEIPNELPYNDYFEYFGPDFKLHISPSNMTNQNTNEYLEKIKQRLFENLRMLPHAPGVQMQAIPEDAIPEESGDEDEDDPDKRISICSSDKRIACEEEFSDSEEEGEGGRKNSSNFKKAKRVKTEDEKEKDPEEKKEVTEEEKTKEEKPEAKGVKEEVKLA

HDAC6 human recombinant, sequence (Q9UBN7 whole entry): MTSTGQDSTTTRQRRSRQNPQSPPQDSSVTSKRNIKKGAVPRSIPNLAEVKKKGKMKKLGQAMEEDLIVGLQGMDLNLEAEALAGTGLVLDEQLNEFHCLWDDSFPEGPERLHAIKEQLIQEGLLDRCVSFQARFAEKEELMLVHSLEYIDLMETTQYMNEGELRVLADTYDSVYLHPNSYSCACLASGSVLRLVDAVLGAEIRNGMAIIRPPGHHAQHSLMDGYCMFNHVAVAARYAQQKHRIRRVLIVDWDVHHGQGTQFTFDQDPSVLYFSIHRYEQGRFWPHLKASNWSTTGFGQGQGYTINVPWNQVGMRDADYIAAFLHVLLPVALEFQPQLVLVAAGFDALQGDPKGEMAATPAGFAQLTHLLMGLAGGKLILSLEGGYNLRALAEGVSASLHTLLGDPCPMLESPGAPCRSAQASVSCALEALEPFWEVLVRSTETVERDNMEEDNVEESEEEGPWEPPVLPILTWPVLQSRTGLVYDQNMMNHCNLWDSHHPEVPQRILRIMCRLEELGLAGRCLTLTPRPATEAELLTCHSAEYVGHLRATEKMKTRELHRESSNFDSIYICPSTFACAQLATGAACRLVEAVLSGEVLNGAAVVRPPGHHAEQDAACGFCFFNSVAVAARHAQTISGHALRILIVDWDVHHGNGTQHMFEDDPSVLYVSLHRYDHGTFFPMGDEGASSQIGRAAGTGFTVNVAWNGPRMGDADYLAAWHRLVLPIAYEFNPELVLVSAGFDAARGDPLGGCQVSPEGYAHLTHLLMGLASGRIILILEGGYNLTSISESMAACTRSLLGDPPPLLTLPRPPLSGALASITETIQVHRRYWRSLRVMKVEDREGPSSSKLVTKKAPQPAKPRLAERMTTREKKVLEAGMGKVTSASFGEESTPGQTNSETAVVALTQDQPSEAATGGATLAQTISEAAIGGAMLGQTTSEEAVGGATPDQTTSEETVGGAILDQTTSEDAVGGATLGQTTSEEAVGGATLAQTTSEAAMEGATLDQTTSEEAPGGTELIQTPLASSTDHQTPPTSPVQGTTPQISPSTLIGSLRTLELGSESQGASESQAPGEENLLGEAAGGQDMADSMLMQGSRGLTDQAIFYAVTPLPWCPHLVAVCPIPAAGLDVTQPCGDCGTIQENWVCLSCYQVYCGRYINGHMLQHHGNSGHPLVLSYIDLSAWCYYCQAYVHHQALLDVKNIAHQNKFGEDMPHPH

pIC50 [1] | pIC50 [2] | SMILES
7.34 | < 5.00 | CNC(=O)C1CCN(c2ccc3c(c2)C(C)(C)C(=O)N(Cc2ccc(-c4nnc(C(F)F)o4)cn2)C3=O)CC1 [Compound 56, 1-(2-((5-(5-(difluoromethyl)-1,3,4-oxadiazole-2-yl)pyridine-2-yl)methyl)-4,4-dimethyl-1,3-dioxo-1,2,3,4-tetrahydroisoquinoline-6-yl)-N-methylpiperidine-4-carboxamide]
7.85 | < 5.00 | CC1(C)C(=O)N(Cc2ccc(-c3nnc(C(F)F)o3)cn2)C(=O)c2ccc(N3C[C@@H]4C[C@H]3CN4S(C)(=O)=O)cc21 [Compound 58, 2-((5-(5-(difluoromethyl)-1,3,4-oxadiazole-2-yl)pyridine-2-yl)methyl)-4,4-dimethyl-6-((1S,4S)-5-(methylsulfonyl)-2,5-diazabicyclo[2.2.1]heptane-2-yl)isoquinoline-1,3(2H,4H)-dione]
7.68 | < 5.00 | CC1(C)C(=O)N(Cc2ccc(-c3nnc(C(F)F)o3)cn2)C(=O)c2ccc(N3CCOCC3)cc21 [Compound 24, 2-((5-(5-(difluoromethyl)-1,3,4-oxadiazole-2-yl)pyridine-2-yl)methyl)-4,4-dimethyl-6-morpholinoisoquinoline-1,3(2H,4H)-dione]
7.10 | < 5.00 | COCCn1c(=O)c2ccccc2n(Cc2ccc(-c3nnc(C(F)F)o3)cn2)c1=O [Compound 76, 1-((5-(5-(difluoromethyl)-1,3,4-oxadiazole-2-yl)pyridine-2-yl)methyl)-3-(2-methoxyethyl)quinazoline-2,4(1H,3H)-dione]
7.15 | < 5.00 | CC1(C)C(=O)N(Cc2ccc(-c3nnc(C(F)F)o3)cn2)C(=O)c2cc(C3CCN(S(C)(=O)=O)CC3)ccc21 [Compound 128, 2-((5-(5-(difluoromethyl)-1,3,4-oxadiazole-2-yl)pyridine-2-yl)methyl)-4,4-dimethyl-7-(1-(methylsulfonyl)piperidine-4-yl)isoquinoline-1,3(2H,4H)-dione]
7.37 | < 5.00 | CC1(C)C(=O)N(Cc2ccc(-c3nnc(C(F)F)o3)cn2)C(=O)c2cc(C3=CCS(=O)(=NC(=O)C(F)(F)F)CC3)ccc21 (stereo not shown) [Compound 125, N-(4-(2-((5-(5-(difluoromethyl)-1,3,4-oxadiazole-2-yl)pyridine-2-yl)methyl)-4,4-dimethyl-1,3-dioxo-1,2,3,4-tetrahydroisoquinoline-7-yl)-1-oxydo-3,6-dihydro-2H-1λ^6-thiopyran-1-ylidene)-2,2,2-trifluoroacetamide]
7.59 | < 5.00 | CCN1CCN(c2ccc3c(c2)C(=O)N(Cc2ccc(-c4nnc(C(F)F)o4)cn2)C(=O)C3(C)C)CC1 [Compound 129, 2-((5-(5-(difluoromethyl)-1,3,4-oxadiazole-2-yl)pyridine-2-yl)methyl)-7-(4-ethylpiperazine-1-yl)-4,4-dimethylisoquinoline-1,3(2H,4H)-dione]
6.71 | < 5.00 | CN1CCC(Cn2c(=O)n(Cc3ccc(-c4nnc(C(F)F)o4)cn3)c(=O)c3ccccc32)CC1 [Compound 15, 3-((5-(5-(difluoromethyl)-1,3,4-oxadiazole-2-yl)pyridine-2-yl)methyl)-1-((1-methylpiperidine-4-yl)methyl)quinazoline-2,4(1H,3H)-dione]
6.60 | < 5.00 | CN(C)CCCn1c(=O)n(Cc2ccc(-c3nnc(C(F)F)o3)cn2)c(=O)c2ccccc21 [Compound 19, 3-((5-(5-(difluoromethyl)-1,3,4-oxadiazole-2-yl)pyridine-2-yl)methyl)-1-(3-(dimethylamino)propyl)quinazoline-2,4(1H,3H)-dione]
7.68 | < 5.00 | CC(C)N1CCN(c2ccc3c(c2)C(=O)N(Cc2ccc(-c4nnc(C(F)F)o4)cn2)C(=O)C3(C)C)CC1 [Compound 119, 2-((5-(5-(difluoromethyl)-1,3,4-oxadiazole-2-yl)pyridine-2-yl)methyl)-7-(4-isopropylpiperazine-1-yl)-4,4-dimethylisoquinoline-1,3(2H,4H)-dione]
6.93 | < 5.00 | CN1CCN(c2ccc3c(c2)C(C)(C)C(=O)N(Cc2ncc(-c4nnc(C(F)F)o4)cn2)C3=O)CC1 [Compound 153, 2-((5-(5-(difluoromethyl)-1,3,4-oxadiazole-2-yl)pyrimidine-2-yl)methyl)-4,4-dimethyl-6-(4-methylpiperazine-1-yl)isoquinoline-1,3(2H,4H)-dione]
7.21 | < 5.00 | Cn1c(=O)n(Cc2ccc(-c3nnc(C(F)F)o3)cn2)c(=O)c2ccc(Br)cc21 [Compound 97, 7-bromo-3-((5-(5-(difluoromethyl)-1,3,4-oxadiazole-2-yl)pyridine-2-yl)methyl)-1-methylquinazoline-2,4(1H,3H)-dione]
7.54 | < 5.00 | CN(C)[C@H]1CCN(c2ccc3c(c2)C(C)(C)C(=O)N(Cc2ccc(-c4nnc(C(F)F)o4)cn2)C3=O)C1 [Compound 31, (S)-2-((5-(5-(difluoromethyl)-1,3,4-oxadiazole-2-yl)pyridine-2-yl)methyl)-6-(3-(dimethylamino)pyrrolidine-1-yl)-4,4-dimethylisoquinoline-1,3(2H,4H)-dione]
6.29 | < 5.00 | O=C1c2ccccc2C2(CCC2)C(=O)N1Cc1ccc(-c2nnc(C(F)F)o2)cc1 [Compound 5, 2′-(4-(5-(difluoromethyl)-1,3,4-oxadiazole-2-yl)benzyl)-1′H-spiro[cyclobutane-1,4′-isoquinoline]-1′,3′(2′H)-dione]
6.50 | < 5.00 | O=C1c2ccccc2C2(CCC2)C(=O)N1Cc1ccc(-c2nnc(C(F)F)o2)cc1F [Compound 3, 2′-(4-(5-(difluoromethyl)-1,3,4-oxadiazole-2-yl)-2-fluorobenzyl)-1′H-spiro[cyclobutane-1,4′-isoquinoline]-1′,3′(2′H)-dione]
6.88 | < 5.00 | O=C1Cc2ccccc2C(=O)N1Cc1ccc(-c2nnc(C(F)F)o2)cn1 [Compound 65, 2-((5-(5-(difluoromethyl)-1,3,4-oxadiazole-2-yl)pyridine-2-yl)methyl)isoquinoline-1,3(2H,4H)-dione]
6.65 | < 5.00 | COc1ccc(Cn2c(=O)n(Cc3ccc(-c4nnc(C(F)F)o4)cn3)c(=O)c3ccccc32)cc1 [Compound 13, 3-((5-(5-(difluoromethyl)-1,3,4-oxadiazole-2-yl)pyridine-2-yl)methyl)-1-(4-methoxybenzyl)quinazoline-2,4(1H,3H)-dione]
7.21 | < 5.00 | O=c1[nH]c2ccc(F)cc2c(=O)n1Cc1ccc(-c2nnc(C(F)F)o2)cn1 [Compound 67, 3-((5-(5-(difluoromethyl)-1,3,4-oxadiazole-2-yl)pyridine-2-yl)methyl)-6-fluoroquinazoline-2,4(1H,3H)-dione]
7.66 | < 5.00 | CN1CCN(c2ccc3c(c2)C(=O)N(Cc2ccc(-c4nnc(C(F)F)o4)cn2)C(=O)C3(C)C)CC1 [Compound 118, 2-((5-(5-(difluoromethyl)-1,3,4-oxadiazole-2-yl)pyridine-2-yl)methyl)-4,4-dimethyl-7-(4-methylpiperazine-1-yl)isoquinoline-1,3(2H,4H)-dione]
7.30 | < 5.00 | CC1(C)C(=O)N(Cc2ccc(-c3nnc(C(F)F)o3)cn2)C(=O)c2cc(-c3ccoc3)ccc21 [Compound 112, 2-((5-(5-(difluoromethyl)-1,3,4-oxadiazole-2-yl)pyridine-2-yl)methyl)-7-(furan-3-yl)-4,4-dimethylisoquinoline-1,3(2H,4H)-dione]
7.05 | < 5.00 | CC1(C)C(=O)N(Cc2ccc(-c3nnc(C(F)F)o3)cn2)C(=O)c2ccc(N3CCN(CC(F)(F)C(F)F)CC3)cc21 [Compound 137, 2-((5-(5-(difluoromethyl)-1,3,4-oxadiazole-2-yl)pyridine-2-yl)methyl)-4,4-dimethyl-6-(4-(2,2,3,3-tetrafluoropropyl)piperazine-1-yl)isoquinoline-1,3(2H,4H)-dione]
7.66 | < 5.00 | CCN1CCN(c2ccc3c(c2)C2(CCC2)C(=O)N(Cc2ccc(-c4nnc(C(F)F)o4)cn2)C3=O)CC1 [Compound 117, 2′-((5-(5-(difluoromethyl)-1,3,4-oxadiazole-2-yl)pyridine-2-yl)methyl)-6′-(4-ethylpiperazine-1-yl)-1′H-spiro[cyclobutane-1,4′-isoquinoline]-1′,3′(2′H)-dione]
7.32 | < 5.00 | O=C1c2ccc(Br)cc2C2(CCC2)C(=O)N1Cc1ccc(-c2nnc(C(F)F)o2)cn1 [Compound 106, 6′-bromo-2′-((5-(5-(difluoromethyl)-1,3,4-oxadiazole-2-yl)pyridine-2-yl)methyl)-1′H-spiro[cyclobutane-1,4′-isoquinoline]-1′,3′(2′H)-dione]
7.43 | < 5.00 | CC1(C)C(=O)N(Cc2ccc(-c3nnc(C(F)F)o3)cn2)C(=O)c2cc(C3CCN(C4CCC4)CC3)ccc21 [Compound 145, 7-(1-cyclobutylpiperidine-4-yl)-2-((5-(5-(difluoromethyl)-1,3,4-oxadiazole-2-yl)pyridine-2-yl)methyl)-4,4-dimethylisoquinoline-1,3(2H,4H)-dione]

SMILES | pIC50 [1] | pIC50 [2]
Cn1c(=O)n(Cc2ccc(-c3nnc(C(F)F)o3)cn2)c(=O)c2cc(-c3cccc(F)c3)ccc21 [Compound 90, 3-((5-(5-(difluoromethyl)-1,3,4-oxadiazole-2-yl)pyridine-2-yl)methyl)-6-(3-fluorophenyl)-1-methylquinazoline-2,4(1H,3H)-dione] | 7.39 | < 5.00
CC1(C)C(=O)N(Cc2ccc(-c3nnc(C(F)F)o3)cn2)C(=O)c2ccc(N3CCN(CC(F)(F)C(F)(F)C(F)(F)F)CC3)cc21 [Compound 140, 2-((5-(5-(difluoromethyl)-1,3,4-oxadiazole-2-yl)pyridine-2-yl)methyl)-6-(4-(2,2,3,3,4,4,4-heptafluorobutyl)piperazine-1-yl)-4,4-dimethylisoquinoline-1,3(2H,4H)-dione] | 6.27 | < 5.00
